The compounds below were run against T1, human FSH receptor (Homo sapiens, UniProt P23945) (assay: hFSHRago (CHO luc): agonistic activity at the human FSH receptor expressed in CHO cells, CRE-luciferase reporter). Conditions: CHO cells stably transfected with human FSH receptor and CRE/luciferase reporter; 4 hours of incubation.
T1 construct: expressed in transfected cells
T1 sequence (P23945 18-695): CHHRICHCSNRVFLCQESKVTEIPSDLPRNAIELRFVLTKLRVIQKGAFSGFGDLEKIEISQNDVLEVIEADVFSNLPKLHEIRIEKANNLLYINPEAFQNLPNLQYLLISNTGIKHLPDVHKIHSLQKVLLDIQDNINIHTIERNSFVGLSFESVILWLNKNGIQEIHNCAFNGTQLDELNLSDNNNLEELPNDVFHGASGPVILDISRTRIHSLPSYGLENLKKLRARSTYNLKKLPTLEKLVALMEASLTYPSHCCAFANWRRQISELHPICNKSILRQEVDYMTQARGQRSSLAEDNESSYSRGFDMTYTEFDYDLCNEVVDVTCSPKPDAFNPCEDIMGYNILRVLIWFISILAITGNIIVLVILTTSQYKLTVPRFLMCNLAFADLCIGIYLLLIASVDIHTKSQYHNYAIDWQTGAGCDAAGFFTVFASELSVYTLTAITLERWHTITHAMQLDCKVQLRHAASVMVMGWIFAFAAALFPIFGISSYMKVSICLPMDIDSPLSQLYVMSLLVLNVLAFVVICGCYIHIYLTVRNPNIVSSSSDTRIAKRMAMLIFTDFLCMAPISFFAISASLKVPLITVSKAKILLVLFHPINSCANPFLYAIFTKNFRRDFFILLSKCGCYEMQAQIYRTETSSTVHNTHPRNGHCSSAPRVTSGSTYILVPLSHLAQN
Assay type: cell-based

SMILES	EC50 [nM]
COc1cc2c(cc1C=O)-c1c(-c3cccs3)cc(C(=O)N(C)C(C)(C)C)n1CC2 [Example 91a, 9-Formyl-8-methoxy-1-thiophen-2-yl-5,6-dihydro-pyrrolo[2,1-α]isoquinoline-3-carboxylic acid tert-butyl-methyl-amide]	6
COc1cc2c(cc1OC)-c1c(-c3ccc(F)cc3F)cc(C(=O)N(C)C(C)(C)C)n1CC2 [Example 118, 1-(2,4-Difluoro-phenyl)-8,9-dimethoxy-5,6-dihydro-pyrrolo[2,1-α]isoquinoline-3-carboxylic acid tert-butyl-methyl-amide]	48.3
COc1cc2c(cc1OC(C)C)-c1c(-c3cccs3)cc(C(=O)N3CCCN(S(=O)(=O)c4ccc(C)cc4)CCC3)n1CC2 [Example 17, (9-Isopropoxy-8-methoxy-1-thiophen-2-yl-5,6-dihydro-pyrrolo[2,1-α]isoquinolin-3-yl)-[5-(toluene-4-sulfonyl)-perhydro-1,5-diazocin-1-yl]-methanone]	914
COc1cc2c(cc1C#N)-c1c(-c3cccs3)cc(C(=O)N(C)C(C)(C)C)n1CC2 [Example 83, 9-Cyano-8-methoxy-1-thiophen-2-yl-5,6-dihydro-pyrrolo[2,1--α]isoquinoline-3-carboxylic acid tert-butyl-methyl-amide]	4.3
COc1cc2c(cc1OCCC(C)C)-c1c(-c3cccs3)cc(C(=O)N3CCCN(C(C)=O)CC3)n1CC2 [Example 80, 1-{4-[8-Methoxy-9-(3-methyl-butoxy)-1-thiophen-2-yl-5,6-dihydro-pyrrolo[2,1-α]isoquinoline-3-carbonyl]-perhydro-1,4-diazepin-1-yl}-ethanone]	101
COc1cc2c(cc1OC(C)C)-c1c(-c3cccs3)c(CO)c(C(=O)N(C)C(C)(C)C)n1CC2 [Example 40, 2-Hydroxymethyl-9-isopropoxy-8-methoxy-1-thiophen-2-yl-5,6-dihydro-pyrrolo[2,1-α]isoquinoline-3-carboxylic acid tert-butyl-methyl-amide]	8.8
CC(C)Cc1cc2c(cc1O)CCn1c(C(=O)N(C)C(C)(C)C)cc(-c3cccs3)c1-2 [Example 61, 8-Hydroxy-9-isobutyl-1-thiophen-2-yl-5,6-dihydro-pyrrolo[2,1-α]isoquinoline-3-carboxylic acid tert-butyl-methyl-amide]	5.2
COc1cc2c(cc1N1CCOCC1)-c1c(-c3cccnc3)cc(C(=O)N(C)C(C)(C)C)n1CC2 [Example 57, 8-Methoxy-9-morpholin-4-yl-1-pyridin-3-yl-5,6-dihydro-pyrrolo[2,1-α]isoquinoline-3-carboxylic acid tert-butyl-methyl-amide; trifluoro acetic acid]	276
CN(C(=O)c1cc(-c2cccs2)c2n1CCc1ccc(N3CCNC3=O)cc1-2)C(C)(C)C [Example 90, 9-(2-Oxo-imidazolidin-1-yl)-1-thiophen-2-yl-5,6-dihydro-pyrrolo[2,1-α]isoquinoline-3-carboxylic acid tert-butyl-methyl-amide]	218
COc1cc2c(cc1OCCNS(C)(=O)=O)-c1c(-c3cccs3)cc(C(=O)N(C)C(C)(C)C)n1CC2 [Example 68, 9-(2-Methanesulfonylamino-ethoxy)-8-methoxy-1-thiophen-2-yl-5,6-dihydro-pyrrolo[2,1-α]isoquinoline-3-carboxylic acid tert-butyl-methyl-amide]	16
COc1cc2c(cc1OC(C)C)-c1c(-c3cccs3)cc(C(=O)N3CCCN(C(=O)C4(OC)CCC4)CC3)n1CC2 [Example 11, (9-Isopropoxy-8-methoxy-1-thiophen-2-yl-5,6-dihydro-pyrrolo[2,1-α]isoquinolin-3-yl)-[4-(1-methoxy-cyclobutanecarbonyl)-[1,4]diazepan-1-yl]-methanone]	5.4
COc1cc2c(cc1CC(C)C)-c1c(-c3cccs3)cc(C(=O)N(C)C(C)(C)CO)n1CC2 [Example 81, 9-Isobutyl-8-methoxy-1-thiophen-2-yl-5,6-dihydro-pyrrolo[2,1-α]isoquinoline-3-carboxylic acid (2-hydroxy-1,1-dimethyl-ethyl)-methyl-amide]	6

The remaining compounds from weak to strong by EC50, led by results:

EC50 [nM]	SMILES
234	COc1cc2c(cc1OC(C)C)-c1c(Br)cc(C(=O)N(C)C(C)(C)C)n1CC2 [Example 37c, 1-Bromo-9-isopropoxy-8-methoxy-5,6-dihydro-pyrrolo[2,1-α]isoquinoline-3-carboxylic acid tert-butyl-methyl-amide]
55.2	COc1cc2c(cc1OC(C)C)-c1c(-c3cccs3)cc(C(=O)N(C)N3CCCC3)n1CC2 [Example 32, 9-Isopropoxy-8-methoxy-1-thiophen-2-yl-5,6-dihydro-pyrrolo[2,1-α]isoquinoline-3-carboxylic acid methyl-pyrrolidin-1-yl-amide]
44.8	COc1cc2c(cc1N)-c1c(-c3cccs3)cc(C(=O)N(C)C(C)(C)C)n1CC2 [Example 95, 9-Amino-8-methoxy-1-thiophen-2-yl-5,6-dihydro-pyrrolo[2,1-α]isoquinoline-3-carboxylic acid tert-butyl-methyl-amide]
42	CCOC(=O)CN(C)C(=O)c1cc(-c2ccsc2)c2n1CCc1cc(OC)c(OC)cc1-2 [Example 119c, [(8,9-Dimethoxy-1-thiophen-3-yl-5,6-dihydro-pyrrolo[2,1-α]isoquinoline-3-carbonyl)-methyl-amino]-acetic acid ethyl ester]
36.5	COc1cc2c(cc1OCCNC(C)=O)-c1c(-c3cccs3)cc(C(=O)N(C)C(C)(C)C)n1CC2 [Example 67, 9-(2-Acetylamino-ethoxy)-8-methoxy-1-thiophen-2-yl-5,6-dihydro-pyrrolo[2,1-α]isoquinoline-3-carboxylic acid tert-butyl-methyl-amide]
15	COc1cc2c(cc1OCCOS(C)(=O)=O)-c1c(-c3cccs3)cc(C(=O)N(C)C(C)(C)C)n1CC2 [Example 65e, Methanesulfonic acid 2-[3-(tert-butyl-methyl-carbamoyl)-8-methoxy-1-thiophen-2-yl-5,6-dihydro-pyrrolo[2,1-α]isoquinolin-9-yloxy]-ethyl ester]
8.2	COc1cc2c(cc1OC(C)C)-c1c(-c3cccs3)cc(C(=O)N3CC4CC(CN(C(C)=O)C4)C3)n1CC2 [Example 20, 1-[7-(9-isopopoxy-8-methoxy-1-thiophen-2-yl-5,6-dihydro-pyrrolo[2,1-α]isoquinoline-3-carbonyl)-3,7-diaza-bicyclo[3.3.1]non-3-yl]-ethanone]
6.9	COc1cc2c(cc1OC1CCCCO1)-c1c(-c3cccs3)cc(C(=O)N(C)C(C)(C)C)n1CC2 (stereo not drawn) [Example 69, 8-Methoxy-9-(tetrahydro-pyran-2-yloxy)-1-thiophen-2-yl-5,6-dihydro-pyrrolo[2,1-α]isoquinoline-3-carboxylic acid tert-butyl-methyl-amide]
4.3	CON=Cc1c(-c2cccs2)c2n(c1C(=O)N(C)C(C)(C)C)CCc1cc(OC)c(OC(C)C)cc1-2 [Example 43, 9-Isopropoxy-8-methoxy-2-(methoxyimino-methyl)-1-thiophen-2-yl-5,6-dihydro-pyrrolo[2,1-α]isoquinoline-3-carboxylic acid tert-butyl-methyl-amide]
4.2	COc1cc2c(cc1NC(C)C)-c1c(-c3cccs3)cc(C(=O)N(C)C(C)(C)C)n1CC2 [Example 51, 9-Isopropylamino-8-methoxy-1-thiophen-2-yl-5,6-dihydro-pyrrolo[2,1-α]isoquinoline-3-carboxylic acid tert-butyl-methyl-amide]
2.7	COc1cc2c(cc1OC(C)C)-c1c(-c3cccs3)c(C=O)c(C(=O)N(C)C(C)(C)C)n1CC2 [Example 39, 2-Formyl-9-isopropoxy-8-methoxy-1-thiophen-2-yl-5,6-dihydro-pyrrolo[2,1-α]isoquinoline-3-carboxylic acid tert-butyl-methyl-amide]
1.4	COCC(=O)Nc1cc2c(cc1OC)CCn1c(C(=O)N(C)C(C)(C)C)cc(-c3cccs3)c1-2 [Example 98, 8-Methoxy-9-(2-methoxy-acetylamino)-1-thiophen-2-yl-5,6-dihydro-pyrrolo[2,1-α]isoquinoline-3-carboxylic acid tert-butyl-methyl-amide]
1.1	COc1cc2c(cc1-c1cn[nH]c1)-c1c(-c3cccs3)cc(C(=O)N(C)C(C)(C)C)n1CC2 [Example 55, 8-Methoxy-9-(1H-pyrazol-4-yl)-1-thiophen-2-yl-5,6-dihydro-pyrrolo[2,1-α]isoquinoline-3-carboxylic acid tert-butyl-methyl-amide]
0.9	COc1cc2c(cc1OC(C)C)-c1c(-c3cccs3)cc(C(=O)N3CCCN(C(=O)C4CCCO4)CC3)n1CC2 (stereo not drawn) [Example 1, (9-Isopropoxy-8-methoxy-1-thiophen-2-yl-5,6-dihydro-pyrrolo[2,1-α]isoquinolin-3-yl)-[4-(tetrahydro-furan-2-carbonyl)-[1,4]diazepan-1-yl]-methanone]
0.4	COc1cc2c(cc1CCCO)-c1c(-c3cccs3)cc(C(=O)N(C)C(C)(C)C)n1CC2 [Example 91d, 9-(3-hydroxy-propyl)-8-methoxy-1-thiophen-2-yl-5,6-dihydro-pyrrolo[2,1-α]iso-quinoline-3-carboxylic acid tert-butyl-methyl-amide]
